These results are taken from EP0903341A1, “"Novel ortho-mercaptoaniline compounds"” (Akzo Nobel N.V., priority 1997, dated 1999).

For one assay, the system named is Entamoeba histolytica. In words: Anti-amoebic action in vivo in rats infected in the caecum (cure index). The settings on record: for cure index: five days.
The test system of assay [1] is Entamoeba histolytica 200: NIH or E-32. As to the kind of experiment: Anti-amoebic action in vitro (axenic culture, minimum inhibitory concentration). Format: cell-based. The settings on record: axenic culture in TYI-S-33 medium, 48 h incubation with compound at 37°C, amoebae counted by microscope, read-out: minimum concentration active in killing the amoeba. The protocol:
Axenic Entamoeba histolytica cultures were grown in glass, screw-capped tubes (16x100 mm) containing about 10 ml complete growth medium TYI-S-33. The tubes were inoculated with 0.5 ml of a 72 h old axenic culture of Entamoeba histolytica 200: NIH or E-32, obtained from an external supplier (Kothari Research Centre, Calcutta, India). After incubation for 24 h at 37°C compounds to be tested were added at desired concentrations. Incubation of the tubes was continued for an additional 48 h. The number of amoebae in the medium were counted by microscopic examination at 100x magnification. The complete growth medium TYI-S-33 medium was prepared by mixing aseptically 9 ml of a nutrient solution, 1 ml of animal serum, 0.3 ml of a vitamin mixture and 0.05 ml of a solution containing the antibiotics streptomycine and benzylpenicillin. The composition of TYI-S-33 medium and method of preparation is described in detail by Diamond (J Parasitology 54:1047-1056, 1968). Test compounds are tested at different concentrations, the highest is 100 µg/ml. Lower concentrations are tested in successive tests until the minimum inhibitory concentration is reached. The reference compounds tinidazole was active in killing the amoeba at a minimum concentration of 1.5 µg/ml. Compound B of this invention was active in killing the amoeba at a minimum concentration of 3.1 µg/ml.

In brackets after ≈: the same amount, converted by molar mass.

On to `COc1ccc(CCNCCC(=O)N(C)c2ccccc2SC)cc1OC` [Compound A, 3-[2-(3,4-dimethoxyphenyl)ethylamino]-N-methyl-N-[(2-methylthio)phenyl]-propionamide], for which the cure index with Entamoeba histolytica (Dose 9 mg/kg oral) is given as 23 percentage of the control group; in the assay on Entamoeba histolytica (Dose 18.8 mg/kg oral), 34 percentage of the control group; in the assay with Entamoeba histolytica (Dose 37.5 mg/kg oral), 56 ±5 percentage of the control group; in the assay on Entamoeba histolytica (Dose 75 mg/kg oral), 76 ±6 percentage of the control group; in the assay on Entamoeba histolytica (Dose 100 mg/kg oral) it was 74 ± 10 percentage of the control group. Further, the “increase in cure index (in words)” value with Entamoeba histolytica (doses of 9 or 20 mg/kg per day, oral) is “No increase in cure index”.
Turning to `CCS(=O)(=O)CCn1c([N+](=O)[O-])cnc1C` [Tinidazole, reference compound], the MIC in assay [1] was 1.5 µg/mL (≈ 6.07 µM). Also, the cure index is on record as 51 ± 8 percentage of the control group in the assay with Entamoeba histolytica (Dose 75 mg/kg oral), 66 ± 5 percentage of the control group in the assay with Entamoeba histolytica (Dose 150 mg/kg oral) and 81 ± 5 percentage of the control group with Entamoeba histolytica (Dose 200 mg/kg oral).
`COc1ccc(CSc2ccccc2N(C)CCCN(C)CCc2ccc(OC)c(OC)c2)cc1` [Compound B, N-[2-(3,4-dimethoxyphenyl)ethyl]-N-methyl-N'-[2-(4-methoxyphenyl)methylthiophenyl]-N'-methyl-1,3-diaminopropane]: the MIC in assay [1] amounted to 3.1 µg/mL (≈ 6.27 µM).
